Laboratory results reported in patent publication US20030004126A1, “Formulations of adenosine A1 agonists” (priority 1999, published 2003).

Columns and labels:
Male Random Hooded rats = assay: Carrageenan model: carrageenan-induced decrease in weight bearing (allodynia) and paw oedema; format: in vivo; conditions: Compound A orally, dosed with morphine subcutaneously; rat, 3 hours after intraplantar 2% carrageenan; dual channel weight averager
Protocol: (a) Carrageenan Model for 5′-Deoxy-5′-fluoro-N-(tetrahydro-pyran-4-yl)-adenosine (Adenosine A1 Agonist) and Morphine
Male Random Hooded rats (180-220 g) were used. The test compound or vehicle was administered 30 mins before the 2nd test compound or vehicle. The test compounds and vehicles used were: (i) Compound A in 0.25% methyl cellulose and (ii) Morphine was made up in saline. Compound A was administered orally. Morphine was administered subcutaneously. After a further 30 mins 100 ul of 2% carrageenan was injected intraplantar into the left hind paw and the animals were then returned to their cages. Three hours later behavioural testing of the carrageenan-induced decrease in weight on the inflamed left hind paw (% weight on the inflammed left hind paw) and associated oedema was assessed. Weight bearing was measured using the dual channel weight averager and paw oedema was assessed using a plethysmometer. The dual channel weight averager is commercially available and is described in the following abstract: Validation of the dual channel weight averager as an instrument for the measurement of inflammatory pain, N. M. Clayton et al., 1997 British Journal Pharmacol. 120, 219P
Note: In the absense of pain, weight on the hind paws would be evenly distributed, i.e. 50% on each hind paw. […]

rats = assay: Nociceptive study using an algesymeter (normal nociceptive thresholds); format: in vivo; conditions: Compound A in combination with morphine, rat
Protocol: (b) Nociceptive Study for 5′-Deoxy-5′-fluoro-N-(tetrahydro-pyran4-yl)-adenosine (Adenosine A1 Agonist) and morphine
Nociception studies were carried out using an algesymeter (Randal, L et. al ([…]). Arch. Int. Pharmacodyn., 61 409-419. Variations in the rats normal nociceptive thresholds were studied.

## O[C@@H]1[C@H](O)[C@@H](CF)O[C@H]1n1cnc2c(NC3CCOCC3)ncnc21 [5′-Deoxy-5′-fluoro-N-(tetrahydro-pyran-4-yl)-adenosine]
Male Random Hooded rats
  effect against the carrageenan-induced decrease in weight bearing: at least an additive effect
rats
  effect on normal nociceptive levels (nociceptive threshold): significantly increased the normal nociceptive levels of the rat producing at least an additive if not synergistic effect
